# Results as given in US8362057B2, “Imidazolecarboxamide derivatives as fructose-1,6-bisphosphatase inhibitors, and pharmaceutical compositions comprising same” (Merck Patent Gesellschaft mit beschränkter Haftung, priority 2005, dated 2013).
# Molecular target: T1, human liver recombinant fructose-1,6-bisphosphatase (hFBPase) (Homo sapiens, UniProt P09467)
# T1 sequence (P09467 1-338): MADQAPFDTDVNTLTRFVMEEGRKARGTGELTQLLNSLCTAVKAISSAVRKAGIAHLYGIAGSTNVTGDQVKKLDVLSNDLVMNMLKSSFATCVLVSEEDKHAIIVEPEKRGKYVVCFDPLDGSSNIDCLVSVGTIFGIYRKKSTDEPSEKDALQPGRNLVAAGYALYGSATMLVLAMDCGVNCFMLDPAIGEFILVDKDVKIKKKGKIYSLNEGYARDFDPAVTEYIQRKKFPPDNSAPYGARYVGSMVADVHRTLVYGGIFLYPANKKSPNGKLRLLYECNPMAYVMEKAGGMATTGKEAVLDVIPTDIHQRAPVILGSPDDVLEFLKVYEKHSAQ
# Experiment: Inhibition of human liver recombinant fructose-1,6-bisphosphatase (spectrophotometric coupled PGI/G6PDH assay)
# Type: biochemical
# Conditions: human liver recombinant enzyme; 0.167 mM fructose-1,6-bisphosphate, pH 7.5, room temperature, 340 nm
# Description: Method for Measuring the Inhibition of Human Liver Recombinant Fructose-1,6-bisphosphatase
# The enzymatic activity is measured by using a spectrophotometric method by means of reactions coupling the formation of the product (fructose-6-phosphate) to the reduction of NADP+ via phosphoglucoisomerase (PGI) and glucose-6-phosphate dehydrogenase (G6PDH).
# The reaction mixtures (250 μl) are prepared in 96-well plates and are composed of 20 mM triethanolamine, pH 7.5, 2 mM MgCl2, 0.1 mM EDTA, 40 mM ammonium sulfate, 0.5 mM NADP, 1 U/ml G6PDH, 1 U/ml PGI and 0.167 mM of substrate (fructose-1,6-bisphosphate).
# The inhibitors are prepared at 10^−2 M in 100% DMSO and tested at 10^−5 M (DMSO 0.1% final).
# The reactions are initiated by addition of human liver recombinant enzyme fructose-1,6-bisphosphatase (hFBPase) and monitored for 30 minutes at 340 nm, at room temperature, in a Tecan plate reader.
row,IC50,Structure (SMILES)
1,42 µM,"CC(C)c1cccc(C(C)C)c1NC(=O)Nc1[nH]c(Cc2ccc(C(=O)O)o2)nc1C(N)=O [Example 7.9, 5-{4-Carbamoyl-5-[3-(2,6-diisopropylphenyl)ureido]-1H-imidazol-2-yl-methyl}furan-2-carboxylic acid]"
2,36 µM,"CC(C)(C)c1ccc(C(=O)Nc2[nH]c(Cc3ccc(C(=O)N4CCCC4)o3)nc2C(N)=O)cc1 [Example 8.5, 5-(4-tert-Butylbenzoylamino)-2-[5-(pyrrolidine-1-carbonyl)furan-2-yl-methyl]-1H-imidazole-4-carboxamide]"
3,23 µM,"CC(C)(C)c1ccc(C(=O)Nc2[nH]c(Cc3ccc(C(=O)O)o3)nc2C(N)=O)cc1 [Example 6.8, 5-[5-(4-tert-Butylbenzoylamino)-4-carbamoyl-1H-imidazol-2-ylmethyl]furan-2-carboxylic acid]"
4,24 µM,"CCCCCc1ccc(NC(=O)Nc2[nH]c(Cc3ccc(C(=O)O)o3)nc2C(N)=O)cc1 [Example 7.8, 5-{4-Carbamoyl-5-[3-(4-pentylphenyl)ureido]-1H-imidazol-2-ylmethyl}furan-2-carboxylic acid]"
5,28 µM,"CCCc1ccc(C(=O)Nc2[nH]c(Cc3ccc(C(=O)O)o3)nc2C(N)=O)cc1 [Example 6, 5-[4-Carbamoyl-5-(4-propylbenzoylamino)-1H-imidazol-2-ylmethyl]furan-2-carboxylic acid]"
